According to patent US10030020B2, “Spirocycle compounds and methods of making and using same” (Abide Therapeutics, Inc., priority 2016, dated 2018):
Where two headings read alike, the source gives them in different places.

How the values were obtained:
Format in all cases: biochemical
MAGL = MAGL (Mus musculus (Mouse), UniProt O35678); assay: In vitro competitive activity-based protein profiling (mouse brain membrane fraction or cell lysates), MAGL band; conditions: for inhibition at 1 µM: read-out: MAGL % Inh 1 μM (mouse); for IC50: competitive ABPP
Sequence of MAGL (O35678 whole entry): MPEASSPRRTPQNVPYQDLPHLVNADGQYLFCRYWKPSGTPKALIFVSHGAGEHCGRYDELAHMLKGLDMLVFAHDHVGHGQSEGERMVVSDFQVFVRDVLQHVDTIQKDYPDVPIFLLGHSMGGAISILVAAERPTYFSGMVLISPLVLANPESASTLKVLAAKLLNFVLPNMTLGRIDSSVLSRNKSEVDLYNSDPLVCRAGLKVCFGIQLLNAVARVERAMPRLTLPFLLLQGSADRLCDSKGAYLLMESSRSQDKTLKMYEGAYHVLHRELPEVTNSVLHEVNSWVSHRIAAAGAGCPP
Experimental: In Vitro Competitive Activity-Based Protein Profiling.
Proteomes (mouse brain membrane fraction or cell lysates) (50 μL, 1.0 mg/mL total protein concentration) were preincubated with varying concentrations of inhibitors at 37° C. After 30 min, FP—Rh (1.0 μL, 50 μM in DMSO) was added and the mixture was incubated for another 30 min at 37° C. Reactions were quenched with SDS loading buffer (50 μL-4×) and run on SDS-PAGE.

ABHD6 = ABHD6 (Mus musculus (Mouse), UniProt Q8R2Y0); assay: In vitro competitive activity-based protein profiling (mouse brain membrane fraction or cell lysates), ABHD6 band; conditions: for inhibition at 1 µM: read-out: ABHD6 % Inh 1 μM (mouse); for IC50: competitive ABPP
Sequence of ABHD6 (Q8R2Y0 whole entry): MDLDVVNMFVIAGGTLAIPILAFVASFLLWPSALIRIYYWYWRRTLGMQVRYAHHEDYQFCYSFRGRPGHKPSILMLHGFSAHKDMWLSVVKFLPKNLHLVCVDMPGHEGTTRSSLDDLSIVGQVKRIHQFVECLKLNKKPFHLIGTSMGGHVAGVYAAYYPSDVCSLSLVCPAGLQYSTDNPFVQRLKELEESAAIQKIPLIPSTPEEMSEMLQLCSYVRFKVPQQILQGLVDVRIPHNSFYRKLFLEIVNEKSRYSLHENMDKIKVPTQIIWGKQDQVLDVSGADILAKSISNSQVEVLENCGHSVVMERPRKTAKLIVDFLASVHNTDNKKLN
Procedure, shortened: (§1)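 Competitive ABPP: proteome 1.0 mg/mL protein + inhibitor, 30 min, 37° C; FP-Rh probe (stock 50 μM in DMSO) added, 30 min, 37° C; SDS quench, SDS-PAGE, fluorescent band intensity read.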

FAAH = FAAH (Mus musculus (Mouse), UniProt O08914); assay: In vitro competitive activity-based protein profiling (mouse brain membrane fraction or cell lysates), FAAH band; conditions: for inhibition at 1 µM: read-out: FAAH % Inh 1 μM (mouse); for IC50: competitive ABPP
Sequence of FAAH (O08914 whole entry): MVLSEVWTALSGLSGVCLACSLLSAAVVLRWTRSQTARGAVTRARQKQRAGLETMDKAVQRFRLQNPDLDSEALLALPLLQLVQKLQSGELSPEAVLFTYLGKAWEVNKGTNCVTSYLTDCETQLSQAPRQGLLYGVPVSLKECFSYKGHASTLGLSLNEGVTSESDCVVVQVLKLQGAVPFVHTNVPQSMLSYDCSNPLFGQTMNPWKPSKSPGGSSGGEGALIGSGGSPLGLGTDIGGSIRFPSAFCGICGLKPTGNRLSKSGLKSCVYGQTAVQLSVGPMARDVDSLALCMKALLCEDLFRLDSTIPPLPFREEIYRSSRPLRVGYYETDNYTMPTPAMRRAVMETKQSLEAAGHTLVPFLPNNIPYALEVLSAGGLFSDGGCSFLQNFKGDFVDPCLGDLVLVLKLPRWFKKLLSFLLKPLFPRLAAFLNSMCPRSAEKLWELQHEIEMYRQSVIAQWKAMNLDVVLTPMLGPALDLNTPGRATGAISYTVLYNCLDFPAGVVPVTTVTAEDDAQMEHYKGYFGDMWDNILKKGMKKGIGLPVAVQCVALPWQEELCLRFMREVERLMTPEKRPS
Procedure, shortened: as §1

inhibition at 1 µM (MAGL; mouse proteome)	IC50 (MAGL; mouse proteome)	inhibition at 1 µM (ABHD6; mouse proteome)	IC50 (ABHD6; mouse proteome)	inhibition at 1 µM (FAAH; mouse proteome)	IC50 (FAAH; mouse proteome)	inhibition at 1 µM (MAGL; mouse)	inhibition at 1 µM (ABHD6; mouse)	inhibition at 1 µM (FAAH; mouse)	Compound
> 75%	100 to 1000 nM	≥ 75%	100 to 1000 nM	< 25%	> 1000 nM				CC1(C)CC2(CCN(C(=O)OC(C(F)(F)F)C(F)(F)F)CC2)CN1Cc1cccc(N2CCOCC2)c1Cl [Example 185, 1,1,1,3,3,3-hexafluoropropan-2-yl 2-(2-chloro-3-morpholinobenzyl)-3,3-dimethyl-2,8-diazaspiro[4.5]decane-8-carboxylate]
> 75%	100 to 1000 nM	25 to 75%	> 1000 nM	< 25%	> 1000 nM				CCN1CCc2cccc(CN3CCCC34CCN(C(=O)OC(C(F)(F)F)C(F)(F)F)CC4)c2C1 [Example 144, 1,1,1,3,3,3-Hexafluoropropan-2-yl 1-((2-ethyl-1,2,3,4-tetrahydroisoquinolin-8-yl)methyl)-1,8-diazaspiro[4.5]decane-8-carboxylate]
> 75%	< 100 nM	25 to 75%	> 1000 nM	< 25%	> 1000 nM				O=C(OC(C(F)(F)F)C(F)(F)F)N1CCC2(CCCN2Cc2ccc(C(F)(F)F)cc2OC2CCOCC2)CC1 [Example 169, 1,1,1,3,3,3-Hexafluoropropan-2-yl 1-(2-(tetrahydro-2H-pyran-4-yloxy)-4-(trifluoromethyl)benzyl)-1,8-diazaspiro[4.5]decane-8-carboxylate]
> 75%	< 100 nM	< 25%	> 1000 nM	< 25%	> 1000 nM				CC(=O)N1CCc2cccc(CN3CCCC34CCN(C(=O)OC(C(F)(F)F)C(F)(F)F)CC4)c2C1 [Example 145, 1,1,1,3,3,3-Hexafluoropropan-2-yl 1-((2-acetyl-1,2,3,4-tetrahydroisoquinolin-8-yl)methyl)-1,8-diazaspiro[4.5]decane-8-carboxylate]
> 75%	< 100 nM	25 to 75%	> 1000 nM	< 25%	> 1000 nM				O=C(OC(C(F)(F)F)C(F)(F)F)N1CCC2(CCCN2Cc2ccc3c(c2)OCCO3)CC1 [Example 126, 1,1,1,3,3,3-Hexafluoropropan-2-yl 1-(2,3-dihydro-1,4-benzodioxin-6-ylmethyl)-1,8-diazaspiro[4.5]decane-8-carboxylate]
> 75%		< 25%	> 1000 nM	< 25%	> 1000 nM				O=C(OC(C(F)(F)F)C(F)(F)F)N1CCC2(CCCN2Cc2cccc(N3CCC4(CCOCC4)C3)c2Cl)CC1 [Example 117, 1,1,1,3,3,3-Hexafluoropropan-2-yl 1-(2-chloro-3-(8-oxa-2-azaspiro[4.5]decan-2-yl)benzyl)-1,8-diazaspiro[4.5]decane-8-carboxylate]
> 75%	< 100 nM	25 to 75%	> 1000 nM	< 25%	> 1000 nM				CC(=O)N1CCN(c2cccc(CN3CCCC34CCN(C(=O)OC(C(F)(F)F)C(F)(F)F)CC4)c2Cl)CC1 [Example 114, 1,1,1,3,3,3-Hexafluoropropan-2-yl 1-(3-(4-acetylpiperazin-1-yl)-2-chlorobenzyl)-1,8-diazaspiro[4.5]decane-8-carboxylate]
> 75%	< 100 nM	< 25%	> 1000 nM	< 25%	> 1000 nM				O=C(OC(C(F)(F)F)C(F)(F)F)N1CCC2(CCCN2Cc2cccc(N3CC4COCC4C3)c2Cl)CC1 (centres unmarked) [Example 112, 1,1,1,3,3,3-Hexafluoropropan-2-yl 1-(2-chloro-3-(tetrahydro-1H-furo[3,4-c]pyrrol-5(3H)-yl)benzyl)-1,8-diazaspiro[4.5]decane-8-carboxylate]
> 75%	< 100 nM	< 25%	> 1000 nM	< 25%	> 1000 nM				CC1(C)CC2(CCN(C(=O)OC(C(F)(F)F)C(F)(F)F)CC2)CN1Cc1ccc(C(F)(F)F)cc1N1CC2COCC2C1 (centres unmarked) [Example 55, 1,1,1,3,3,3-Hexafluoropropan-2-yl 3,3-dimethyl-2-(2-(tetrahydro-1H-furo[3,4-c]pyrrol-5(3H)-yl)-4-(trifluoromethyl)benzyl)-2,8-diazaspiro[4.5]decane-8-carboxylate]
> 75%	< 100 nM	< 25%	> 1000 nM	< 25%	> 1000 nM				CCN1CCN(c2cccc(CN3CCCC34CCN(C(=O)OC(C(F)(F)F)C(F)(F)F)CC4)c2Cl)CC1 [Example 116, 1,1,1,3,3,3-Hexafluoropropan-2-yl 1-(2-chloro-3-(4-ethylpiperazin-1-yl)benzyl)-1,8-diazaspiro[4.5]decane-8-carboxylate]
> 75%	100 to 1000 nM	< 25%	> 1000 nM	< 25%	> 1000 nM				COc1cccc(CN2CCCC23CCN(C(=O)OC(C(F)(F)F)C(F)(F)F)CC3)c1 [Example 2, 1,1,1,3,3,3-Hexafluoropropan-2-yl 1-(3-methoxybenzyl)-1,8-diazaspiro[4.5]decane-8-carboxylate]
> 75%	100 to 1000 nM	< 25%	> 1000 nM	< 25%	> 1000 nM				CCN1CCCc2cccc(CN3CCCC34CCN(C(=O)OC(C(F)(F)F)C(F)(F)F)CC4)c21 [Example 158, 1,1,1,3,3,3-Hexafluoropropan-2-yl 1-((1-ethyl-1,2,3,4-tetrahydroquinolin-8-yl)methyl)-1,8-diazaspiro[4.5]decane-8-carboxylate]
> 75%	100 to 1000 nM	25 to 75%	> 1000 nM	< 25%	> 1000 nM				CC1(C)CC2(CCN(C(=O)OC(C(F)(F)F)C(F)(F)F)CC2)CN1Cc1cccc(CN2CCOCC2)c1F [Example 191, 1,1,1,3,3,3-Hexafluoropropan-2-yl 2-(2-fluoro-3-(morpholinomethyl)benzyl)-3,3-dimethyl-2,8-diazaspiro[4.5]decane-8-carboxylate]
> 75%	< 100 nM	< 25%	> 1000 nM	< 25%	> 1000 nM				O=C(OC(C(F)(F)F)C(F)(F)F)N1CCC2(CCCN2Cc2cccc3c2CN(C2CC2)CC3)CC1 [Example 148, 1,1,1,3,3,3-Hexafluoropropan-2-yl 1-((2-cyclopropyl-1,2,3,4-tetrahydroisoquinolin-8-yl)methyl)-1,8-diazaspiro[4.5]decane-8-carboxylate]
> 75%	< 100 nM	< 25%	> 1000 nM	< 25%	> 1000 nM				CS(=O)(=O)N1CCCc2cccc(CN3CCCC34CCN(C(=O)OC(C(F)(F)F)C(F)(F)F)CC4)c21 [Example 143, 1,1,1,3,3,3-Hexafluoropropan-2-yl 1-((1-methanesulfonyl-1,2,3,4-tetrahydroquinolin-8-yl)methyl)-1,8-diazaspiro[4.5]decane-8-carboxylate]
> 75%	100 to 1000 nM	25 to 75%	> 1000 nM	< 25%	> 1000 nM				CC(C)CN1CCc2cccc(CN3CCCC34CCN(C(=O)OC(C(F)(F)F)C(F)(F)F)CC4)c2C1 [Example 149, 1,1,1,3,3,3-Hexafluoropropan-2-yl 1-((2-(2-methylpropyl)-1,2,3,4-tetrahydroisoquinolin-8-yl)methyl)-1,8-diazaspiro[4.5]decane-8-carboxylate]
> 75%	< 100 nM	≥ 75%	100 to 1000 nM	< 25%	> 1000 nM				O=C(OC(C(F)(F)F)C(F)(F)F)N1CCC2(CCN(Cc3ccc(N4CCOCC4)c(C(F)(F)F)c3)C2)CC1 [Example 140, 1,1,1,3,3,3-Hexafluoropropan-2-yl 2-(4-morpholino-3-(trifluoromethyl)benzyl)-2,8-diazaspiro[4.5]decane-8-carboxylate]
						< 25%	< 25%	< 25%	Cc1ccc(CN2CCCC23CCN(C(=O)OC(C(F)(F)F)C(F)(F)F)CC3)cc1C(=O)O [Example 257]
> 75%	< 100 nM	≥ 75%	100 to 1000 nM	< 25%	> 1000 nM				CC(C)N1CCc2cccc(CN3CCC4(CCN(C(=O)OC(C(F)(F)F)C(F)(F)F)CC4)C3)c2C1 [Example 162, 1,1,1,3,3,3-Hexafluoropropan-2-yl 2-((2-isopropyl-1,2,3,4-tetrahydroisoquinolin-8-yl)methyl)-2,8-diazaspiro[4.5]decane-8-carboxylate]

Compound	inhibition at 1 µM (MAGL; mouse proteome)	IC50 (MAGL; mouse proteome)	inhibition at 1 µM (ABHD6; mouse proteome)	IC50 (ABHD6; mouse proteome)	inhibition at 1 µM (FAAH; mouse proteome)	IC50 (FAAH; mouse proteome)	inhibition at 1 µM (MAGL; mouse)	inhibition at 1 µM (ABHD6; mouse)	inhibition at 1 µM (FAAH; mouse)
O=C(OC(C(F)(F)F)C(F)(F)F)N1CCC2(CCCN2Cc2cccc(N3C4CCC3COC4)c2Cl)CC1 [Example 109, 1,1,1,3,3,3-Hexafluoropropan-2-yl 1-(3-(3-oxa-8-azabicyclo[3.2.1]octan-8-yl)-2-chlorobenzyl)-1,8-diazaspiro[4.5]decane-8-carboxylate]	> 75%	< 100 nM	< 25%	> 1000 nM	< 25%	> 1000 nM			
